Data: PubChem BioAssay AID330 (DTP/NCI, 2004)
Values joined by “and” are separate entries in the source; they are usually repeats but may differ in a detail not shown here. Equal entries are not always repeated. Toxic doses and inconclusive results are not listed. Peptide text beside a SMILES is read from it. * marks the point of attachment. Cbz = O=C(OCc1ccccc1)*

System: P388 leukemia ip, CD2F1 mice, survival T/C
Test: NCI In Vivo Anticancer Drug Screen. Data for tumor model P388 Leukemia (intraperitoneal) in CD2F1 (CDF1) mice
Conditions: endpoint: median survival time, higher = longer survival
In short: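 Mice carrying the transplanted tumor received test compound or vehicle. Survival was recorded in each group, and the value is the treated-group measurement divided by that of the vehicle-treated control group.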

[1] = dose: 12.5 mg/kg/injection, schedule: Q01DX009 (ip), vehicle: Klucel (hydroxypropylcellulose) (HPC)
[2] = dose: 50.0 mg/kg/injection, schedule: Q01DX009 (ip), vehicle: Klucel (hydroxypropylcellulose) (HPC)
[3] = dose: 50.0 mg/kg/injection, schedule: Q01DX009 (ip), vehicle: saline with Tween-80
[4] = dose: 50.0 mg/kg/injection, schedule: Q01DX009 (ip), vehicle: saline
[5] = dose: 100.0 mg/kg/injection, schedule: Q01DX009 (ip), vehicle: saline with Tween-80
[6] = dose: 100.0 mg/kg/injection, schedule: Q01DX009 (ip), vehicle: saline
[7] = dose: 200.0 mg/kg/injection, schedule: Q01DX009 (ip), vehicle: Klucel (hydroxypropylcellulose) (HPC)
[8] = dose: 200.0 mg/kg/injection, schedule: Q01DX009 (ip), vehicle: saline with Tween-80
[9] = dose: 200.0 mg/kg/injection, schedule: Q04DX003 (ip), vehicle: Klucel (hydroxypropylcellulose) (HPC)
[10] = dose: 100.0 mg/kg/injection, schedule: Q04DX003 (ip), vehicle: saline
[11] = dose: 200.0 mg/kg/injection, schedule: Q04DX003 (ip), vehicle: saline
[12] = dose: 400.0 mg/kg/injection, schedule: Q04DX003 (ip), vehicle: saline
[13] = dose: 60.0 mg/kg/injection, schedule: Q01DX005 (ip), vehicle: saline with Tween-80
[14] = dose: 120.0 mg/kg/injection, schedule: Q01DX005 (ip), vehicle: saline with Tween-80
[15] = dose: 240.0 mg/kg/injection, schedule: Q01DX005 (ip), vehicle: saline with Tween-80
[16] = dose: 50.0 mg/kg/injection, schedule: Q01DX005 (ip), vehicle: Klucel (hydroxypropylcellulose) (HPC)
[17] = dose: 100.0 mg/kg/injection, schedule: Q01DX005 (ip), vehicle: Klucel (hydroxypropylcellulose) (HPC)
[18] = dose: 200.0 mg/kg/injection, schedule: Q01DX005 (ip), vehicle: Klucel (hydroxypropylcellulose) (HPC)
[19] = dose: 6.25 mg/kg/injection, schedule: Q01DX009 (ip), vehicle: Klucel (hydroxypropylcellulose) (HPC)
[20] = dose: 25.0 mg/kg/injection, schedule: Q01DX009 (ip), vehicle: Klucel (hydroxypropylcellulose) (HPC)

For OC(CBr)C(O)C(O)C(O)CBr (configuration not stated), the T/C [1] was 106 % of control, the T/C (dose: 36.0 mg/kg/injection, schedule: Q01DX005 (ip), vehicle: Klucel (hydroxypropylcellulose) (HPC)) was 107 % of control and 109 % of control and the T/C [2] was 115 % of control. For the same compound, the T/C (dose: 50.0 mg/kg/injection, schedule: Q01DX009 (ip), vehicle: distilled water + Tween-80) was 114 % of control, the T/C [3] was 107 % of control and the T/C [4] was 96 % of control. The T/C (dose: 50.0 mg/kg/injection, schedule: Q01DX010 (ip), vehicle: saline) was 109 % of control, the T/C (dose: 53.0 mg/kg/injection, schedule: Q01DX005 (ip), vehicle: Klucel (hydroxypropylcellulose) (HPC)) was 120 % of control and the T/C (dose: 80.0 mg/kg/injection, schedule: Q01DX005 (ip), vehicle: Klucel (hydroxypropylcellulose) (HPC)) was 173 % of control. The T/C (dose: 100.0 mg/kg/injection, schedule: Q01DX009 (ip), vehicle: distilled water + Tween-80) was 124 % of control, the T/C [5] was 114 % of control and the T/C [6] was 123 % of control. For the same compound, the T/C (dose: 100.0 mg/kg/injection, schedule: Q01DX010 (ip), vehicle: saline) was 109 % of control, the T/C (dose: 120.0 mg/kg/injection, schedule: Q01DX005 (ip), vehicle: Klucel (hydroxypropylcellulose) (HPC)) was 170 % of control and 207 % of control and the T/C (dose: 180.0 mg/kg/injection, schedule: Q01DX005 (ip), vehicle: Klucel (hydroxypropylcellulose) (HPC)) was 163 % of control and 181 % of control. For the same compound, the T/C [7] was 107 % of control, the T/C (dose: 200.0 mg/kg/injection, schedule: Q01DX009 (ip), vehicle: distilled water + Tween-80) was 122 % of control and the T/C [8] was 113 % of control. The T/C (dose: 200.0 mg/kg/injection, schedule: Q01DX010 (ip), vehicle: saline) was 109 % of control, the T/C [9] was 190 % of control and the T/C (dose: 300.0 mg/kg/injection, schedule: Q04DX003 (ip), vehicle: Klucel (hydroxypropylcellulose) (HPC)) was 200 % of control. The T/C (dose: 400.0 mg/kg/injection, schedule: Q01DX009 (ip), vehicle: Klucel (hydroxypropylcellulose) (HPC)) was 93 % of control, the T/C (dose: 400.0 mg/kg/injection, schedule: Q01DX009 (ip), vehicle: distilled water + Tween-80) was 86 % of control and the T/C (dose: 400.0 mg/kg/injection, schedule: Q01DX009 (ip), vehicle: saline with Tween-80) was 117 % of control. For the same compound, the T/C (dose: 800.0 mg/kg/injection, schedule: Q01DX009 (ip), vehicle: saline with Tween-80) was 120 % of control.
With CC(C)C(NC(=O)C(N)CCCCN)C(=O)O (stereo not drawn) (H-Lys-Val-OH; configuration not given here) the T/C [10] was 96 % of control, the T/C [11] was 97 % of control and the T/C [12] was 97 % of control.
With OCC1CC12c1ccccc1-c1ccccc12 (configuration not stated) the T/C [13] was 98 % of control, the T/C [14] was 96 % of control and the T/C [15] was 101 % of control.
For O=c1[nH]c2cc(Cl)ccc2n1C1CCN(CCCC(c2ccc(F)cc2)c2ccc(F)cc2)CC1, the T/C (dose: 6.25 mg/kg/injection, schedule: Q01DX005 (ip), vehicle: saline with Tween-80) was 106 % of control, the T/C (dose: 12.5 mg/kg/injection, schedule: Q01DX005 (ip), vehicle: saline with Tween-80) was 110 % of control and the T/C (dose: 25.0 mg/kg/injection, schedule: Q01DX005 (ip), vehicle: saline with Tween-80) was 110 % of control.
COc1ccc(S(=O)(=O)F)cc1NC(=O)Oc1ccccc1 was tested, and the T/C [13] was 105 % of control, the T/C [14] was 113 % of control and the T/C [15] was 111 % of control.
COC(=O)C(N)CSCSCc1ccccc1 (configuration not stated) was tested, and the T/C (dose: 3.13 mg/kg/injection, schedule: Q01DX009 (ip), vehicle: water) was 90 % of control, the T/C (dose: 6.25 mg/kg/injection, schedule: Q01DX009 (ip), vehicle: water) was 90 % of control and the T/C (dose: 12.5 mg/kg/injection, schedule: Q01DX009 (ip), vehicle: water) was 93 % of control. The T/C (dose: 25.0 mg/kg/injection, schedule: Q01DX009 (ip), vehicle: saline) was 100 % of control, the T/C (dose: 25.0 mg/kg/injection, schedule: Q01DX009 (ip), vehicle: water) was 90 % of control and the T/C [4] was 98 % of control. The T/C (dose: 50.0 mg/kg/injection, schedule: Q01DX009 (ip), vehicle: water) was 90 % of control and the T/C [6] was 101 % of control.
For CC(C)C(NC(=O)C(Cc1ccc(O)cc1)NC(=O)OCc1ccccc1)C(=O)O (stereo not drawn) (Cbz-Tyr-Val-OH; configuration not given here), the T/C [16] was 103 % of control, the T/C [17] was 100 % of control and the T/C [18] was 100 % of control.
In the case of O=C(CBr)N1c2ccccc2Sc2c1ccc1ccccc21, the T/C [19] is reported as 86 % of control, the T/C [1] is reported as 111 % of control and the T/C [20] is reported as 117 % of control. For the same compound, the T/C [2] was 117 % of control, the T/C (dose: 50.0 mg/kg/injection, schedule: Q04DX003 (ip), vehicle: Klucel (hydroxypropylcellulose) (HPC)) was 99 % of control and 114 % of control and the T/C (dose: 100.0 mg/kg/injection, schedule: Q01DX009 (ip), vehicle: Klucel (hydroxypropylcellulose) (HPC)) was 120 % of control. For the same compound, the T/C (dose: 100.0 mg/kg/injection, schedule: Q04DX003 (ip), vehicle: Klucel (hydroxypropylcellulose) (HPC)) was 99 % of control and 113 % of control and 120 % of control, the T/C [7] was 120 % of control and the T/C [9] was 101 % of control and 120 % of control and 87 % of control. For the same compound, the T/C (dose: 400.0 mg/kg/injection, schedule: Q04DX003 (ip), vehicle: Klucel (hydroxypropylcellulose) (HPC)) was 106 % of control and 123 % of control.
With C=C1NC(=O)C(N)=C1C(C)=O the T/C [13] was 100 % of control and the T/C [14] was 104 % of control.
With CCCCc1c(O)c2c(=O)[nH]c(C)nc2oc1=O the T/C (dose: 3.75 mg/kg/injection, schedule: Q01DX005 (ip), vehicle: Klucel (hydroxypropylcellulose) (HPC)) was 96 % of control, the T/C (dose: 7.5 mg/kg/injection, schedule: Q01DX005 (ip), vehicle: Klucel (hydroxypropylcellulose) (HPC)) was 95 % of control and the T/C (dose: 15.0 mg/kg/injection, schedule: Q01DX005 (ip), vehicle: Klucel (hydroxypropylcellulose) (HPC)) was 92 % of control.
For CN(C(=S)Nc1ccccc1)c1nnn(C)n1, the T/C [3] was 98 % of control, the T/C [5] was 100 % of control and the T/C [8] was 107 % of control.
For CCCCCCCCCCCCCCCCOP(=O)(O)OCCCCCCCCCCCCCCCC, the T/C (dose: 100.0 mg/kg/injection, schedule: Q04DX003 (ip), vehicle: saline with Tween-80) was 88 % of control and the T/C (dose: 200.0 mg/kg/injection, schedule: Q04DX003 (ip), vehicle: saline with Tween-80) was 90 % of control.
With COc1ccc(OC)c(NC(=O)CCCC(=O)C(C#N)c2nc3ccccc3s2)c1 (configuration not stated) the T/C [13] was 105 % of control, the T/C [14] was 108 % of control and the T/C [15] was 100 % of control.
In the case of O=S1(=O)c2ccccc2N(c2ccccc2)c2nnc(COc3ccccc3)n21, the T/C (dose: 50.0 mg/kg/injection, schedule: Q01DX005 (ip), vehicle: saline with Tween-80) is reported as 90 % of control and the T/C (dose: 100.0 mg/kg/injection, schedule: Q01DX005 (ip), vehicle: saline with Tween-80) is reported as 88 % of control.
In the case of CCOc1ccc(N=C([Se])CC)cc1, the T/C [19] is reported as 109 % of control, the T/C [1] is reported as 102 % of control and the T/C [20] is reported as 92 % of control.
For CC(=O)NCSCC(N)C(=O)O (configuration not stated), the T/C [6] was 104 % of control, the T/C [10] was 95 % of control and the T/C (dose: 200.0 mg/kg/injection, schedule: Q01DX009 (ip), vehicle: saline) was 118 % of control. The T/C [11] was 113 % of control, the T/C (dose: 400.0 mg/kg/injection, schedule: Q01DX009 (ip), vehicle: saline) was 90 % of control and the T/C [12] was 90 % of control.
With CC(C)(CO)NC(=O)c1ccc(C(C)(C)C)cc1Br the T/C (dose: 100.0 mg/kg/injection, schedule: Q01DX001 (ip), vehicle: saline with Tween-80) was 99 % of control, the T/C (dose: 200.0 mg/kg/injection, schedule: Q01DX001 (ip), vehicle: saline with Tween-80) was 99 % of control and the T/C (dose: 400.0 mg/kg/injection, schedule: Q01DX001 (ip), vehicle: saline with Tween-80) was 100 % of control.
For O=C(O)CCSCCCCCCCCCCCCSCCC(=O)O, the T/C [16] was 95 % of control, the T/C [17] was 89 % of control and the T/C [18] was 87 % of control.
For COc1ccc(OC)c(C=Nc2ccc(S(=O)(=O)Nc3nccc(C)n3)cc2)c1, the T/C (dose: 12.5 mg/kg/injection, schedule: Q01DX009 (ip), vehicle: saline with Tween-80) was 90 % of control, the T/C (dose: 25.0 mg/kg/injection, schedule: Q01DX009 (ip), vehicle: saline with Tween-80) was 90 % of control and the T/C [3] was 87 % of control. The T/C [8] was 100 % of control.
